# Assay results: patent publication US9073895B2 (Boehringer Ingelheim International GmbH, priority 2010, dated 2015)
# Legend:
# [1] = tested on: synthesis of LTB4 in human whole blood; assay: Human whole blood LTB4 production inhibition assay; type: cell-based; details: heparinized human whole blood, calcimycin 20 μM, plasma LTB4; read-out: HuWB IC50
# Protocol: Compounds are additionally tested in a human whole blood assay to determine their ability to inhibit the synthesis of LTB4 in a cellular system. Compounds are combined with heparinized human whole blood and incubated for 15 minutes at 37° C. Calcimycin (20 μM final, prepared in phosphate-buffered saline, pH 7.4) is then added and the mixture is incubated for another 30 minutes at 37° C. The samples are centrifuged for 5 min at low speed (1500×g) and the plasma layer is removed. Plasma LTB4 concentrations are then measured using an antibody-based homogenous time-resolved fluorescence method (CisBio, Bedford, Mass.).
# [2] = target: T1, recombinant human FLAP protein (Homo sapiens, UniProt P20292); assay: FLAP binding assay (SPA, displacement of [125I]L-691,831); details: membranes of sf9 cells expressing human FLAP, [125I]L-691,831 probe; read-out: hFLAP binding IC50
# T1 construct: made in house; host or cells: Sf9 insect cells (membrane fraction, 100,000 x g pellet)
# T1 sequence (P20292 1-161): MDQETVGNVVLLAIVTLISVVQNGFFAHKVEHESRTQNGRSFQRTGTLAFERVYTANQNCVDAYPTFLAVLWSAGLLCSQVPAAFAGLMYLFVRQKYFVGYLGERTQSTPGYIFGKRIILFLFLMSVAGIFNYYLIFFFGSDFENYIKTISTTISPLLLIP
# Protocol: Compounds are assessed for the ability to bind to FLAP in a binding assay that measures compound-specific displacement of an iodinated (^125I) FLAP inhibitor via a Scintillation Proximity Assay format (adapted from S. Charleson et al., Mol. Pharmacol., 1992, 41, 873-879).
# Cell pellets produced from sf9 insect cells expressing recombinant human FLAP protein are resuspended in buffer A [15 mM Tris-HCl (pH 7.5), 2 mM MgCl2, 0.3 mM EDTA, 1 mM PMSF]. The cells are lysed with a Dounce homogenizer and the material is centrifuged at 10,000×g for 10 minutes. The supernatant is then collected and centrifuged at 100,000×g for 60 minutes. To prepare membrane protein for an assay, an aliquot of the 100,000×g pellet is resuspended in 1 ml of buffer A, Dounce homogenized, and finally subjected to polytron mixing (30 seconds). Membrane protein (25 μl, 5 μg) is mixed with WGA SPA beads (Amersham) and stirred for 1 h. To an assay plate (Perkin Elmer FlexiPlate) is added 25 μl of test compound prepared in Binding buffer [100 mM Tris (pH 7.5), 140 mM NaCl, 5% glycerol, 2 mM EDTA, 0.5 mM TCEP, 0.05% Tween 20], 25 μl of [^125I]L-691,831 (an iodinated analog of MK-591, Charleson et al. Mol. Pharmacol., 41, 873-879, 1992) and finally 50 μl of the bead/protein mixture. (final concentrations: beads, 200 μg/well; protein, 5μg/well; [^125I] probe, 0 08 nM/well(17 nCi/well). The plates are shaken for 2 h before reading on a Microbeta plate reader. Non-specific binding is determined by the addition of 10 μM cold L-691,831 compound.
Compound,IC50 [1],IC50 [2]
"Nc1ncc(-c2ccc(C3(C(=O)Nc4ccc(Oc5ccccc5)cc4)CCOCC3)cc2)cn1 [Example 1, 4-[4-(2-aminopyrimidin-5-yl)phenyl]-N-(4-phenoxyphenyl)tetrahydro-2H-pyran-4-carboxamide]",461 nM,16 nM
"N#Cc1ccc(NC(=O)C2(c3ccc(-c4cnc(N)nc4)cc3)CCOCC2)cc1Cl [Example 3, 4-[4-(2-aminopyrimidin-5-yl)phenyl]-N-(3-chloro-4-cyanophenyl)tetrahydro-2H-pyran-4-carboxamide]",328 nM,11.2 nM
"Cc1nnnn1-c1ccc(NC(=O)C2(c3ccc(-c4cnc(N)nc4)cc3)CCOCC2)cc1 [Example 4, 4-[4-(2-aminopyrimidin-5-yl)phenyl]-N-[4-(5-methyl-1H-tetrazol-1-yl)phenyl]tetrahydro-2H-pyran-4-carboxamide]",808 nM,38.5 nM
"Nc1ncc(-c2ccc(C3(C(=O)Nc4ccc(C5CCCCC5)cc4)CCOCC3)cc2)cn1 [Example 5, 4-[4-(2-aminopyrimidin-5-yl)phenyl]-N-(4-cyclohexylphenyl)tetrahydro-2H-pyran-4-carboxamide]",2970 nM,101 nM
"Cc1ccc2nc(NC(=O)C3(c4ccc(-c5cnc(N)nc5)cc4)CCOCC3)sc2c1 [Example 8, 4-[4-(2-aminopyrimidin-5-yl)phenyl]-N-(6-methyl-1,3-benzothiazol-2-yl)tetrahydro-2H-pyran-4-carboxamide]",3560 nM,25 nM
"Nc1ncc(-c2ccc(C3(C(=O)Nc4cnc5ccccc5c4)CCOCC3)cc2)cn1 [Example 11, 4-[4-(2-aminopyrimidin-5-yl)phenyl]-N-(quinolin-3-yl)tetrahydro-2H-pyran-4-carboxamide]",> 3000 nM,21.9 nM
"Nc1ncc(-c2ccc(C3(C(=O)Nc4ccc(C(=O)O)cn4)CCOCC3)cc2)cn1 [Example 157, 6-[({4-[4-(2-aminopyrimidin-5-yl)phenyl]tetrahydro-2H-pyran-4-yl}carbonyl)amino]pyridine-3-carboxylic acid]",,410 nM
"CC(C)(O)c1ccc(NC(=O)C2(c3ccc(-c4cnc(N)nc4)cc3)CCOCC2)nc1 [Example 159, 4-[4-(2-aminopyrimidin-5-yl)phenyl]-N-[5-(2-hydroxypropan-2-yl)pyridin-2-yl]tetrahydro-2H-pyran-4-carboxamide]",,420 nM
"Nc1ncc(-c2ccc(C3(C(=O)Nc4ccccn4)CCCCC3)cc2)cn1 [Example 160, 1-[4-(2-aminopyrimidin-5-yl)phenyl]-N-(pyridin-2-yl)cyclohexanecarboxamide]",,13 nM
"CCCCCc1ccnc(NC(=O)C2(c3ccc(-c4cnc(N)nc4)cc3)CCOCC2)c1 [Example 161, 4-[4-(2-aminopyrimidin-5-yl)phenyl]-N-(4-pentylpyridin-2-yl)tetrahydro-2H-pyran-4-carboxamide]",,31 nM
"COc1nc(-c2ccc(C3(C(=O)Nc4ccc(-c5csc(C)n5)cn4)CCOCC3)cc2)cnc1N [Example 181, 4-[4-(5-amino-6-methoypyrazin-2-yl)phenyl]-N-[5-(2-methyl-1,3-thiazol-4-yl)pyridin-2-yl]tetrahydro-2H-pyran-4-carboxamide]",,110 nM
"CC(=O)Nc1ccc(-c2ccc(C3(C(=O)Nc4ccc(-c5csc(C)n5)cn4)CCOCC3)cc2)cn1 [Example 206, 4-{4-[6-(acetylamino)pyridin-3-yl]phenyl}-N-[5-(2-methyl-1,3-thiazol-4-yl)pyridin-2-yl]tetrahydro-2H-pyran-4-carboxamide]",,270 nM
"COCCNc1ncc(-c2ccc(C3(C(=O)Nc4ccc(-c5csc(C)n5)cn4)CCOCC3)cc2)cn1 [Example 207, 4-(4-{2-[(2-methoxyethyl)amino]pyrimidin-5-yl}phenyl)-N-[5-(2-methyl-1,3-thiazol-4-yl)pyridin-2-yl]tetrahydro-2H-pyran-4-carboxamide]",,230 nM
"Cc1cnc(NC(=O)C2(c3ccc(-c4cnc(N)nc4)cc3)CCC2)s1 [Example 211, 1-[4-(2-aminopyrimidin-5-yl)phenyl]-N-(5-methyl-1,3-thiazol-2-yl)cyclobutanecarboxamide]",,23.5 nM
"CC(C)C(C)(C(=O)Nc1ccncc1)c1ccc(-c2ccc(NCCO)nc2)cc1 (stereo not shown) [Example 226, 2-(4-{6-[(2-hydroxyethyl)amino]pyridin-3-yl}phenyl)-2,3-dimethyl-N-(pyridin-4-yl)butanamide]",,250 nM
"Nc1ncc(-c2ccc(C3(C(=O)Nc4ccc(N5CCOCC5)cc4)CCC3)cc2)cn1 [Example 246, 1-[4-(2-aminopyrimidin-5-yl)phenyl]-N-[4-(morpholin-4-yl)phenyl]cyclobutanecarboxamide]",,34 nM
"Cc1nc(-c2ccc(NC(=O)C(c3ccc(-c4cnc(N)nc4)cc3)C3CCCC3)nc2)cs1 (stereo not shown) [Example 248, 2-[4-(2-aminopyrimidin-5-yl)phenyl]-2-cyclopentyl-N-[5-(2-methyl-1,3-thiazol-4-yl)pyridin-2-yl]acetamide]",,240 nM

# Results, then the compound that gave them:
IC50 [1],IC50 [2],Compound
1370 nM,210 nM,"COc1ccc(NC(=O)C2(c3ccc(-c4cnc(N)nc4)cc3)CCOCC2)cn1 [Example 2, 4-[4-(2-aminopyrimidin-5-yl)phenyl]-N-(6-methoxypyridin-3-yl)tetrahydro-2H-pyran-4-carboxamide]"
2660 nM,10.7 nM,"COc1ccc2nc(NC(=O)C3(c4ccc(-c5cnc(N)nc5)cc4)CCOCC3)sc2c1 [Example 7, 4-[4-(2-aminopyrimidin-5-yl)phenyl]-N-(6-methoxy-1,3-benzothiazol-2-yl)tetrahydro-2H-pyran-4-carboxamide]"
,56.5 nM,"Nc1ncc(-c2ccc(C3(C(=O)Nc4ccccc4-c4ccccc4)CCC3)cc2)cn1 [Example 202, 1-[4-(2-aminopyrimidin-5-yl)phenyl]-N-(biphenyl-2-yl)cyclobutanecarboxamide]"
,13 nM,"Cc1nc(NC(=O)C2(c3ccc(-c4cnc(N)nc4)cc3)CCC2)sc1C [Example 209, 1-[4-(2-aminopyrimidin-5-yl)phenyl]-N-(4,5-dimethyl-1,3-thiazol-2-yl)cyclobutanecarboxamide]"
,15 nM,"Cc1cc(NC(=O)C2(c3ccc(-c4cnc(N)nc4)cc3)CCC2)nc(C)n1 [Example 212, 1-[4-(2-aminopyrimidin-5-yl)phenyl]-N-(2,6-dimethylpyrimidin-4-yl)cyclobutanecarboxamide]"
,470 nM,"Nc1ncc(-c2ccc(C3(C(=O)Nc4ccnc(O)c4)CCC3)cc2)cn1 [Example 220, 1-[4-(2-aminopyrimidin-5-yl)phenyl]-N-(2-hydroxypyridin-4-yl)cyclobutanecarboxamide]"
,4.4 nM,"NC(=O)c1ccc(NC(=O)C2(c3ccc(-c4cnc(N)nc4)cc3)CCC2)cn1 [Example 240, 5-[({1-[4-(2-aminopyrimidin-5-yl)phenyl]cyclobutyl}carbonyl)amino]pyridine-2-carboxamide]"
,3.95 nM,"Nc1ncc(-c2ccc(C3(C(=O)Nc4nc(-c5ccccc5)ns4)CCC3)cc2)cn1 [Example 242, 1-[4-(2-aminopyrimidin-5-yl)phenyl]-N-(3-phenyl-1,2,4-thiadiazol-5-yl)cyclobutanecarboxamide]"
,22 nM,"Nc1ncc(-c2ccc(C3(C(=O)Nc4n[nH]c(-c5ccccc5)n4)CCC3)cc2)cn1 [Example 243, 1-[4-(2-aminopyrimidin-5-yl)phenyl]-N-(5-phenyl-1H-1,2,4-triazol-3-yl)cyclobutanecarboxamide]"
,10.8 nM,"COc1ccc(-c2nc(NC(=O)C3(c4ccc(-c5cnc(N)nc5)cc4)CCC3)n[nH]2)cc1 [Example 244, 1-[4-(2-aminopyrimidin-5-yl)phenyl]-N-[5-(4-methoxyphenyl)-1H-1,2,4-triazol-3-yl]cyclobutanecarboxamide]"
,22.5 nM,"Cc1ccc(NC(=O)C2(c3ccc(-c4cnc(N)nc4)cc3)CCC2)cn1 [Example 249, 1-[4-(2-aminopyrimidin-5-yl)phenyl]-N-(6-methylpyridin-3-yl)cyclobutanecarboxamide]"
,16 nM,"Cc1nc(-c2ccc(NC(=O)C3(c4ccc(-c5cnc(N)nc5)cc4)CC3)nc2)cs1 [Example 251, 1-[4-(2-aminopyrimidin-5-yl)phenyl]-N-[5-(2-methyl-1,3-thiazol-4-yl)pyridin-2-yl]cyclopropanecarboxamide]"
